In patent US4092420A, “Novel soft N-chloroamino alcohol derivatives exhibiting antibacterial activity” (INTERx Research Corporation, priority 1977, dated 1978):
In brackets after ≈: the same amount, converted by molar mass.

Columns and labels:
S. aureus [1] = test: Minimal inhibitory concentration (MIC), Example V; type: cell-based; settings: Staphylococcus aureus
Protocol: (§1) THE ANTIBACTERIAL SCREEN - EXAMPLE V
(§2) THE ANTIBACTERIAL SCREEN - EXAMPLES W - Z (Autotiter IV)
(§3) (a) Compounds. All compounds to be screened are weighed (approx. 10 mg) on the day preceding the test date. Each compound is solubilized on the day of assay in appropriate solvent and diluted automatically in the Autotiter IV with distilled water (buffer can be employed here also).
(§4) Bacteria: Staphylococcus aureas Smith (or 209), Escherichia coli AB 1932-1, 1100/B22 and Vogel, Streptococcus pyogenes C203 Salmonella typhimurium 14028, Bacillus subtilis 6051-1, Klebsiella pneumoniae 10031, Pseudomonas aeruginosa 9027, Bordetella bronchiseptica 4617 and Staphylococcus epidermidis 12228.
(§5) (c) Inocula. Prior to utilization in the Autotiter IV, all bacteria are cultured for 18-20 hr. (37° C) in tryptose phosphate broth (TP), except, S. pyogenes C203, which is cultured in Brain Heart Infusion broth plus 10% normal horse serum. Immediately prior to testing, each culture is adjusted to an optical density of 0.10 (650 nm), employing a Bausch & Lomb Spectronic 20, and diluted subsequently into double strength medium to approximately 2 × 10^5 viable organisms per ml.
(§6) 1. An automated injector system dispenses 0.05 ml of diluent (sterile H2 O or buffer) to all cups of the autotiter trays from rows 2 through 7.
(§7) 2. The loops (for sequential dilutions of the compounds are moistened by immersion into 70% ethyl alcohol. After removal of excess alcohol by blotting, the loops are moved to the first row of cups in the autotray containing 0.10 ml of the compound to be diluted and tested (usually, this initial concentration is 500 to 1000 mcg/ml, but can be varied upward or downward). The loops are lowered and sequentially transfer the diluted solutions of the compound through row 7.
(§8) Immediately after each dilution is made, each cup is automatically inoculated with 0.05 ml of the appropriate test organism. This inoculation derives from a second injector system containing the organism in double-strength medium. The total operation consists of the automatic dilution of a single compound in each of 8 rows of the Autotiter try.
(§9) After these operations, we reverse the tray and a second compound is diluted over the other one-half of the tray and inoculated, subsequently, with 8 organisms. Thus, for each Autotiter Tray, two compounds are screened against 8 different organisms at dilutions ranging from 1:2 to 1:128.
(§10) (e) Incubation. The inoculated Autotiter trays are incubated at 37° C for 18 - 20 hr. At the end of this period, each tray is examined for the presence or absence of growth (turbidity). The lowest concentration of the compound inhibiting growth is recorded as the minimal inhibitory concentration (MIC).

P. aeruginosa [2] = test: Minimal inhibitory concentration (MIC), Example V; type: cell-based; settings: Pseudomonas aeruginosa
Protocol: as §1, §2, §3, §4, §5, §6, §7, §8, §9, §10

C. albicans = test: Minimal inhibitory concentration (MIC), Example V; type: cell-based; settings: Candida albicans
Description: MINIMAL INHIBITORY CONCENTRATION OF 2-AMINO-2-METHYL-1-PROPYL […]
as §1

K. pneumoniae [3] = test: Minimal inhibitory concentration (MIC), Example V; type: cell-based; settings: Klebsiella pneumoniae
Protocol: (§11) MINIMAL INHIBITORY CONCENTRATION OF 2-AMINO-2-METHYL-1-PROPYL
(§12) ^a Minimal inhibitory concentration expressed in parts per million
(§13) sequence inhibited the test organism at the higher concentrations.
as §1
Klebsiella pneumoniae ATCC# 10031
as §2, §3, §4, §5, §6, §7, §8, §9, §10

[4] = Solubility in 30% methanol: 0.1 M sodium dihydrogen phosphate, pH 7.0; type: physicochemical; settings: 0.1 m nah2po4, pH 7, organic solvent or mixture, Concentration (footnote: Solubility in 30% methanol: 0.1 M sodium dihydrogen phosphate, pH 7.0)
E. coli [5] = test: Minimal inhibitory concentration (MIC), Example V; type: cell-based; settings: Escherichia coli
Description: as §11, §12, §13, §1

A. niger = test: Minimal inhibitory concentration (MIC), Example V; type: cell-based; settings: Aspergillus niger
Description: as §11, §12, §13, §1

T. mentagrophytes = test: Minimal inhibitory concentration (MIC), Example V; type: cell-based; settings: Trichophyton mentagrophytes
Description: as §11, §12, §13, §1

S. pyogenes = test: Minimal inhibitory concentration (MIC), Example V; type: cell-based; settings: Streptococcus pyogenes
K. pneumoniae [6] = test: Contact germicidal efficiency (sterilization time); type: cell-based, Klebsiella pneumoniae
Protocol: (§14) CONTACT GERMICIDAL EFFICIENCY OF N-CHLORAMINES AS A FUNCTION
(§15) ^a Time intervals screened 0.5, 1, 2, 3, 4 and 5 minutes.
(§16) ^a Time intervals screened 0.5, 1, 2, 3, 4, 5, 6, 7, 8, 9 and 10
(§17) ^a Time intervals screened 0.5, 1, 2, 3, 4, and 5 minutes.
(§18) ^b Time intervals screened 0.5, 1, 2, 3, 4, 5, 6, 7, 8, 9 and 10
(§19) Immediately preceding the screen, the compound is weighed and diluted with a buffer or other solvent to give the final concentration desired. The buffer or solvent chosen depends on the conditions of the screen and could be one of the following: 0.1 M NaOAc, pH 4.6; 0.1 M NaH2 PO4, pH 7.0; 0.1 M Na2 B4 O7, pH 8.8; 35% methanol in one of the aforementioned buffers; 10% Triton × 100 in buffer, etc.
(§20) The positive chlorine concentration of the test solution is then determined iodometrically.
(§21) Media used for the Screen are Nutrient Broth, BBL# 11479 and Nutrient Agar, BBL# 11472 prepared according to label directions. The broth is dispensed in 75 ml amounts of flasks for overnight cultures and in 5 ml amounts to culture tubes for subculturing during the Screen. Agar plates are prepared as usual.
(§22) Overnight cultures are prepared by inoculating from stock cultures into the 75 ml flasks of nutrient broth and incubating for 15 hours at 37° C.
(§23) The iodometrically characterized test solution is dispensed in 5 ml amounts to seven small stoppered flasks. The organisms are screened one at a time as follows:
(§24) A 0.2 ml portion of the overnight culture is inoculated into 5 ml of 0.9% NaCl for use in controls. A 0.2 ml portion of the overnight culture is inoculated into a flask containing 5 ml of the test solution, an automatic timer is simultaneously triggered and the solution mixed. At time intervals of 30 seconds, 1, 2, 3, 4, 5, 6, 7, 8, 9, and 10 minutes a loopful of the inoculated solution is subcultured into 5 ml of sterile nutrient broth and mixed by a Vortex Genie Mixer, the high dilution serving to stop the action of the compound. At the end of the ten minute screen, the entire procedure is repeated for each of the remaining six organisms. All of the subculture tubes are incubated at 37° C and checked for signs of growth by turbidity at 24 hr., 48 hr., 3, 5, and 7 days. The earliest subculture time at which no growth is present in the subculture tube is considered the endpoint and is recorded as that time, e.g., 7 minutes.
(§25) The test solution is prepared and characterized as above but is made up at twice the concentration desired. The solution is diluted 1:1 with Rehydrated Tissue Culture Dessicated Horse Serum, Difco #5357-72 and dispensed in a 5 ml amount to a small flask. The mixture is incubated at Room Temperature for 30 minutes to allow denaturation of the compound by the serum and then screened as above.
(§26) The 5 ml mixture of serum and test solution are prepared in sequence to allow as close to 30 minutes as possible before the beginning of the screen of each organism.
as §4

P. aeruginosa [7] = test: Contact germicidal efficiency (sterilization time); type: cell-based, Pseudomonas aeruginosa
Protocol: as §14, §15, §16, §17, §18, §19, §20, §21, §22, §23, §24, §25, §26, §4

S. epidermidis = test: Contact germicidal efficiency (sterilization time); type: cell-based, Staphylococcus epidermidis
Protocol: as §14, §15, §16, §17, §18, §19, §20, §21, §22, §23, §24, §25, §26, §4

B. bronchiseptica = test: Contact germicidal efficiency (sterilization time); type: cell-based, Bordetella bronchiseptica
Protocol: as §14, §15, §16, §17, §18, §19, §20, §21, §22, §23, §24, §25, §26, §4

[8] = prior art; cited from earlier work
S. aureus [9] = test: Contact germicidal efficiency (sterilization time); type: cell-based, Staphylococcus aureus; settings: Example Z, pH 4.6, in presence of horse serum, 5800 ppm (1057 PPMCl+)
Protocol: (§27) CONTACT GERMICIDAL EFFICIENCY OF
as §15, §16, §17, §18, §19, §20
as §21, with “usual. […]” for “usual.”
(§28) A 0.2 ml portion of the overnight culture is inoculated into 5 ml of 0.9% NaCl for use in controls. […] The earliest subculture time at which no growth is present in the subculture tube is considered the endpoint and is recorded as that time, e.g., 7 minutes. […]

E. coli [10] = test: Contact germicidal efficiency (sterilization time); type: cell-based, Escherichia coli; settings: Example Z, pH 4.6, in presence of horse serum, 5800 ppm (1057 PPMCl+)
Protocol: as §27, §15, §16, §17, §18, §19, §20
as §21, with “usual. […]” for “usual.”
as §28

[11] = Example X, pH 4.6, no horse serum, IV c 404 ppm (69 PPMCl+), IV g 489 ppm (143 PPMCl+)
[12] = Example X, pH 7.0, no horse serum, IV c 1886 ppm (323 PPMCl+), IV g 409 ppm (120 PPMCl+)
[13] = Example X, pH 9.3, no horse serum, IV c 1704 ppm (292 PPMCl+), IV g 319 ppm (94 PPMCl+)
[14] = Example Z, pH 4.6, absence of horse serum, IV j 79 ppm (21 PPMCl+), IV k 5800 (1057), IV l 1112 (209)
[15] = Example Z, pH 4.6, in presence of horse serum, 5800 ppm (1057 PPMCl+)

SMILES	MIC (S. aureus [1]) [µg/mL]	MIC (P. aeruginosa [2]) [µg/mL]	MIC (C. albicans) [µg/mL]	MIC (K. pneumoniae [3]) [µg/mL]	MIC (E. coli [5]) [µg/mL]	MIC (A. niger) [µg/mL]	MIC (T. mentagrophytes) [µg/mL]	MIC (S. pyogenes) [µg/mL]	also measured
CCCCCCCC(=O)OCC(C)(C)N.Cl [III e, 2-Amino-2-methyl-1-propyl octanoate hydrochloride]	> 62.5	> 62.5	> 62.5	> 62.5	> 62.5	> 62.5	> 62.5	> 62.5	solubility [4]: 1040 µg/mL
CC(C)(C)C(=O)OCC(C)(C)N(Cl)Cl [IV g, 2-N,N-Dichloroamino-2-methyl-1-propyl 2,2-dimethylproprionate]	250 (≈ 1030 µM)	250 (≈ 1030 µM)	> 125	> 125	> 125	> 125	> 125	250 (≈ 1030 µM)	Sterilization Time (K. pneumoniae [6]; [11]): 0.5 min; Sterilization Time (K. pneumoniae [6]; [12]): 3 min; Sterilization Time (K. pneumoniae [6]; [13]): 2 min; Sterilization Time (P. aeruginosa [7]; [11]): 0.5 min; Sterilization Time (P. aeruginosa [7]; [12]): 0.5 min; Sterilization Time (P. aeruginosa [7]; [13]): 0.5 min; Sterilization Time (S. epidermidis; Example X, S. epidermidis, pH 4.6, no horse serum, IV c 404 ppm (69 PPMCl+), IV g 489 ppm (143 PPMCl+)): 0.5 min; Sterilization Time (S. epidermidis; Example X, S. epidermidis, pH 7.0, no horse serum, IV c 1886 ppm (323 PPMCl+), IV g 409 ppm (120 PPMCl+)): 2 min; Sterilization Time (S. epidermidis; Example X, S. epidermidis, pH 9.3, no horse serum, IV c 1704 ppm (292 PPMCl+), IV g 319 ppm (94 PPMCl+)): 2 min; Sterilization Time (B. bronchiseptica; [11]): 1 min; Sterilization Time (B. bronchiseptica; [12]): 2 min; Sterilization Time (B. bronchiseptica; [13]): 2 min
NCl [NH2 Cl, chloramine]	–	–	–	–	–	–	–	–	Deactivation by denaturing agents (e.g., horse serum) [8]: readily deactivated
C[n+]1cccc(C(=O)OCC(C)(C)N(Cl)Cl)c1 [IV k, 2-N,N-Dichloroamino-2-methyl-1-propyl nicotinate methylsulfate]	> 250	> 250	> 250	> 250	> 250	125	125	> 250	Sterilization Time (S. aureus [9]): 6 min; Sterilization Time (E. coli [10]): 0.5 min; Sterilization Time (K. pneumoniae [6]; [14]): 2 min; Sterilization Time (K. pneumoniae [6]; [15]): 2 min; Sterilization Time (P. aeruginosa [7]; [14]): 2 min; Sterilization Time (P. aeruginosa [7]; [15]): 2 min; Sterilization Time (S. epidermidis; Example Z, S. pidermidis, pH 4.6, absence of horse serum, IV j 79 ppm (21 PPMCl+), IV k 5800 (1057), IV l 1112 (209)): 4 min; Sterilization Time (S. epidermidis; Example Z, S. pidermidis, pH 4.6, in presence of horse serum, 5800 ppm (1057 PPMCl+)): 4 min; Sterilization Time (B. bronchiseptica; [14]): 1 min; Sterilization Time (B. bronchiseptica; [15]): 2 min
